The subject of series [1] is SCN2A iAstrocytes co-cultured with mouse neurons. Put plainly: co-culture of CuATSM-pretreated SCN2A iAstrocytes with mouse GFP neurons. The settings on record: 3 days in culture. The format is cell-based, human. The method, then: (§1) FIG. 8A) Schematic protocol of iNeuron reprogramming from patient fibroblasts. Fibroblast cells were seeded on 12-well plates and differentiated for 7 days into iNeurons. iNeurons were fixed and imaged/immunostained for Tuj1 neuronal marker. FIG. 8B) Representative images of fibroblasts (before) and iNeurons after reprogramming. FIG. 8C) Representative bright field images of iNeurons following seven days of differentiation (scale bar=50 μm). On day five of differentiation, cells were treated with 0.01% of CuATSM as well as on day seven. FIG. 8D) Quantification of neuron survival percentage after seven days of differentiation. Tuj1 positive cells from three to five different images per line were counted and data was normalized to the average count of healthy control. FIG. 8E) Schematic of drug screen co-culture assay. Astrocytes were treated during differentiation with CuATSM. […] 24 hours later mouse neurons were seeded on top of astrocyte monolayer and viability was determined following 3 days in culture. […]
The effect of CuATSM treatment on SCN2A iAstrocytes mediated neuron toxicity was investigated. […] Neuron survival was quantified following seven days of differentiation by counting cells with neurites two times the soma length. […] Twenty-four hours later, motor neurons were seeded on top of the astrocyte monolayer and viability was determined following 3 days in culture. […]

For series [2], the system named is Nav1.2. Briefly: Nav1.2 staining of SCN2A-1 patient induced neurons. It counts as cell-based, human. The settings on record: SCN2A-1 induced neurons treated on day 5 and 7 of differentiating. As to the method:
Next, SCN2A patient brain organoids were treated with CuATSM and RNA Seq analysis was performed. […] Uniform manifold approximation and projection (UMAP) for dimension reduction was used for visualization. […] Importantly, expression of SCN2A gene is reduced upon treatment with CuATSM (FIG. 18D). These findings were confirmed by directly differentiating the same patient fibroblasts (SCN2A-1) into induced neurons. Neurons were treated with CuATSM on day 5 and 7 of differentiating then stained for Nav1.2. […] Thus CuATSM can also downregulate SCN2A expression in […] which may add additional therapeutic benefit for these patients.

In series [3] the test system is SCN2A induced neurons. Put plainly: chemical differentiation of SCN2A patient fibroblasts to iNeurons, neuron survival. It counts as cell-based, human. Particulars: 0.01% of CuATSM on days five and seven of differentiation. The method, then:
as §1, with “control.” for “control. FIG. 8E) Schematic of drug screen co-culture assay. Astrocytes were treated during differentiation with CuATSM.”
Neuronal differentiation was performed as previously described (Hu et. al. 2016). […] At 5-7 days neurons were imaged and the number of cells expressing neuronal markers such as Tuj1 and Map2 and contained neurite outgrowths greater than two times the soma were counted.
The effect of CuATSM treatment on SCN2A iAstrocytes mediated neuron toxicity was investigated. […] Neuron survival was quantified following seven days of differentiation by counting cells with neurites two times the soma length. […]

For series [4] the following is noted: cited from earlier work.

Consider `CN=C([S-])N/N=C(C)/C(C)=N/NC([S-])=NC.[Cu+2]` [CuATSM, diacetyl-bis(4-methylthiosemicarbazonato) copperII], for which the “neuron survival following co-culture” value was “significantly increase neuron survival” in series [1] (SCN2A-1 and SCN2A-3 iAstrocytes pretreated during differentiation); “trend towards increased survival” in series [1] (SCN2A-2 iAstrocytes pretreated during differentiation). In series [2], the Nav1.2 protein levels entry is on record as “reduced”. The “neuron survival after seven days of differentiation” value in series [3] is on record as “increase neuronal survival”. The oral bioavailability result in series [4] is reported as “orally bioavailable”.
